Results from US11090292B2, “Compositions and methods of use of an inappetance-controlling compound” (Aratana Therapeutics, Inc., priority 2012, dated 2021).

Key:
[1] = Example 1: capromorelin concentration in serum; type: in vivo
Protocol: (§1) A controlled, seven-day study was performed to assess the impact of different capromorelin-dosing regimens on the production of insulin-like growth factor 1 (hereinafter “IGF-1”), growth hormone (hereinafter “GH”), and cortisol. The different capromorelin-dosing regimens were also assessed for the impact on food intake and changes in body mass.
(§2) Eighteen adult non-naïve Beagle dogs (nine males and nine females) were divided into one of three treatment groups. Each of the three treatment groups included three males and three females. Group A, which was the control group, was dosed twice per day, via oral gavage, with a vehicle (deionized water alone) and was used as a baseline data point for comparison against the active treatment regimens. Group B comprised an active treatment group that received two treatments per day, via oral gavage, with a capromorelin-containing composition with a concentration of 3 mg/kg capromorelin per treatment. Finally, Group C comprised an active treatment group that received one treatment per day, via oral gavage, with a capromorelin-containing composition with a concentration of 6 mg/kg capromorelin per treatment.
(§3) During the ten day study period, on an at least once-daily basis, each of the dogs was monitored for clinical observations, mortality, morbidity, body mass, and food consumption. Serum samples were taken to measure capromorelin concentration, GH concentration, IGF-1 concentration, and cortisol concentration. Serum samples were taken on days 1, 2, 4, and 7 at −15 minutes (pre-dose), immediately prior to dosing (0 minutes) and 30, 45, 60, 90, 120, 240, 360, and/or 480 minutes post dosing. Additional blood samples were taken at 8 AM on Day 10 of the study to assess long-term impact of the active treatments.

[2] = system: cortisol; assay: Example 5: serum cortisol; type: in vivo, Beagle dogs; conditions: Groups 2-4; mitigated by Day 4, further reduced by Day 7
Protocol: (§4) In order to further refine the dosing regimen that would provide an appropriate blood profile of capromorelin and desired results from the perspective of increased food intake and weight gain, an additional series of experiments were conducted. In these experiments, twenty-four adult (male and female) Beagle dogs weighing approximately 9 to 13 kilograms were randomly divided into four groups. Group 1 received a placebo formulation, without any active compound, two times per day; Group 2 received a composition comprising 3 mg/kg of body weight of capromorelin one time per day; Group 3 received a composition comprising 4.5 mg/kg of body weight of capromorelin one time per day; and Group 4 received a composition comprising 3 mg/kg of body weight of capromorelin two times per day. […]
(§5) In these experiments, the animals were orally administered the flavored formulation at approximately 8:00 AM and, for Group 4 only, again at 6:00 PM. […] Food consumption was calculated and recorded on Days −7 through Day 7. Baseline food consumption was calculated for each individual dog as the average number of grams of food consumed on Days −3, −2, and −1. The study period food consumption was calculated for each individual dog as the average of Days 1 through 7. […]

[3] = system: cortisol; assay: Example 1: serum cortisol concentration; type: in vivo, Beagle dogs; conditions: approximately 0.5 h post treatment, days 1, 2 and 7
Protocol: as §1, §2
During the ten day study period, on an at least once-daily basis, each of the dogs was monitored for clinical observations, mortality, morbidity, body mass, and food consumption. […]

[4] = Example 9: clinical observations / toxicological responses; type: in vivo; conditions: injection 0.75 or 2 mg/kg, oral 2 or 4 mg/kg, once daily
Protocol: During the seven day study period, on an at least once-daily basis, each of the cats was monitored for clinical observations, mortality, moribundity, body mass, acceptability/palatability, and food consumption. Serum samples were taken to measure capromorelin concentration, IGF-1 concentration, and cortisol concentration. Serum samples were taken on days 1 and 4 immediately prior to dosing (0 minutes) and 30, 60, 90, 120, 240, 360, and/or 480 minutes post dosing. Additional serum samples were taken at 8 AM on Day 7 of the study to assess long-term impact of the active treatments.

[5] = system: IGF-1; assay: Example 5: serum IGF-1; type: in vivo, Beagle dogs; conditions: by Day 4, remained elevated on Day 7, Groups 2-4
Protocol: as §4, §5

[6] = Example 4: capromorelin concentration in serum; type: in vivo; conditions: Days 1 and 7, 3 mg/kg once or twice daily
Protocol: A controlled, seven-day study was performed to assess the impact of different capromorelin-dosing regimens on the production of IGF-1, GH, and cortisol. The different capromorelin-dosing regimens were also assessed for the impact on food intake and changes in body mass.
[…] were divided into one of three treatment groups, with one negative control group and two active treatment groups. Each of the three treatment groups included three males and three females. The first group received a placebo formulation (i.e., deionized water) twice per day, via oral gavage. The second group received a once-daily dose of the capromorelin composition at a concentration of 3 mg/kg, via oral gavage. The third group received a twice-daily dose of the capromorelin composition at a concentration of 3 mg/kg, via oral gavage.
as §3, with “moribundity,” for “morbidity,”, “mass, acceptability/palatability,” for “mass,”, “Additional blood samples were taken at 8 AM on Day 10 of the study to assess long-term impact of the active treatments.” left out

[7] = Example 5 seven-day study with flavored Formulation 9: food consumption and body weight; type: in vivo, Beagle dogs; conditions: for more food consumed, Day 7 compared with Day −1: oral syringe, Formulation 9
Protocol: In order to further refine the dosing regimen that would provide an appropriate blood profile of capromorelin and desired results from the perspective of increased food intake and weight gain, an additional series of experiments were conducted. In these experiments, twenty-four adult (male and female) Beagle dogs weighing approximately 9 to 13 kilograms were randomly divided into four groups. Group 1 received a placebo formulation, without any active compound, two times per day; Group 2 received a composition comprising 3 mg/kg of body weight of capromorelin one time per day; Group 3 received a composition comprising 4.5 mg/kg of body weight of capromorelin one time per day; and Group 4 received a composition comprising 3 mg/kg of body weight of capromorelin two times per day.
In particular, on the first day of dosing, Day 1, through the last day of dosing, Day 7, the compositions were orally administered (i.e., using a syringe) to the animals in a flavored formulation of the following composition: […]
In these experiments, the animals were orally administered the flavored formulation at approximately 8:00 AM and, for Group 4 only, again at 6:00 PM. The animals were fed at 10:00 AM beginning seven days prior to Day 1 and continuing for the duration of the study. The animals were offered twice the normal amount of food. Approximately two hours after the food offering, the remainder was removed and weighed to assess food intake. This restricted feeding regime was started at Day −7 to allow the animals to transition to a normal feed intake before the study was initiated. Food consumption was calculated and recorded on Days −7 through Day 7. Baseline food consumption was calculated for each individual dog as the average number of grams of food consumed on Days −3, −2, and −1. The study period food consumption was calculated for each individual dog as the average of Days 1 through 7. Body weights were collected on Days −1, 3, and 7. Blood was collected for measurements of capromorelin, growth hormone, cortisol, and IGF-1 concentrations on Days 1, 4, and 7 at about 15 minutes pre-administration, immediately prior to dosing (0 minutes), 30, 45, 60, 90, 120, 240, 360, and/or 480 minutes post dosing via the jugular or other accessible vessel. As reflected by the data in FIGS. 61-74, the animals' response to the capromorelin-containing composition is largely in accord with the results discussed above.

[8] = Days 1 and 7, 3 mg/kg twice daily or 6 mg/kg once daily oral gavage

## CN1N=C2CCN(C(=O)[C@@H](COCc3ccccc3)NC(=O)C(C)(C)N)C[C@@]2(Cc2ccccc2)C1=O.O=C(O)C(O)C(O)C(=O)O [capromorelin]
[1]; [8]
  serum capromorelin by eight hours after dosing (480 minutes): decreased to near undetectable levels
  time after dosing at which serum capromorelin concentrations spike: approximately 0.5 h
[1]; oral gavage
  serum capromorelin concentration, 6 mg/kg dose relative to twice-daily 3 mg/kg dose: about 2.3 fold
[2]
  cortisol in the serum: initial increase in cortisol in the serum on Day 1
[3]
  cortisol concentrations in the serum relative to deionized water: increased
[4]
  toxicological responses: no toxicological responses were noted
[5]
  IGF-1 levels in treated animals: sustained increase
[6]
  serum capromorelin by eight hours after administration: decreased to near undetectable levels
  time after dosing at which serum capromorelin begins rising: approximately 0.5 h
[7]; Group 2, 3 mg/kg 1x per day
  Comparison of Weight on Day −1 to Weight on Day 7 (X ± SD, %): 4.52 ± 1.67%
[7]; Group 2, 3 mg/kg one time per day
  more food consumed, Day 7 compared with Day −1: 42.7%
[7]; Group 3, 4.5 mg/kg 1x per day
  Comparison of Weight on Day −1 to Weight on Day 7 (X ± SD, %): 3.78 ± 2.93%
[7]; Group 3, 4.5 mg/kg one time per day
  more food consumed, Day 7 compared with Day −1: 34.5%
[7]; Group 4, 3 mg/kg 2x per day
  Comparison of Weight on Day −1 to Weight on Day 7 (X ± SD, %): 4.17 ± 1.35%
[7]; Group 4, 3 mg/kg two times per day
  more food consumed, Day 7 compared with Day −1: 31.5%
